Molecule `CC(C)On1c(-c2ccccc2)nc2c(N)nc3ccccc3c21` [Example 11, 1-Isopropoxy-2-phenyl-1H-imidazo[4,5-c]quinolin-4-amine] yielded a melting point of 188 to 191 °C. To `COn1c(C)nc2c(N)nc3ccccc3c21` [Example 7, 1-Methoxy-2-methyl-1H-imidazo[4,5-c]quinolin-4-amine] belongs 237 to 238 °C; to `CCCc1nc2c(N)nc3ccccc3c2n1OCC` [Example 3, 1-Ethoxy-2-propyl-1H-imidazo[4,5-c]quinolin-4-amine], 198 to 199 °C; to `CCc1nc2c(N)nc3ccccc3c2n1OC` [Example 4, 2-Ethyl-1-methoxy-1H-imidazo[4,5-c]quinolin-4-amine], 216 to 217 °C. To `Cc1nc2c(N)nc3ccccc3c2n1OCc1ccccc1[N+](=O)[O-]` [Example 29, 2-Methyl-1-[(2-nitrobenzyl)oxy]-1H-imidazo[4,5-c]quinolin-4-amine] belongs 215 to 217 °C; to `CCc1nc2c(N)nc3ccccc3c2n1OC(C)C` [Example 5, 2-Ethyl-1-isopropoxy-1H-imidazo[4,5-c]quinolin-4-amine], 242 to 243 °C. Consider `COn1c(C2CCCCC2)nc2c(N)nc3ccccc3c21` [Example 13, 2-Cyclohexyl-1-methoxy-1H-imidazo[4,5-c]quinolin-4-amine], for which the melting point is 220 to 222 °C. To `CCCCc1nc2c(N)nc3ccccc3c2n1OC(C)C` [Example 28, 2-Butyl-1-isopropoxy-1H-imidazo[4,5-c]quinolin-4-amine] belongs 118 to 119 °C; to `CCOn1cnc2c(N)nc3ccccc3c21` [Example 20, 1-Ethoxy-1H-imidazo[4,5-c]quinolin-4-amine], 179 to 181 °C; to `CC(C)On1c(C2CCCCC2)nc2c(N)nc3ccccc3c21` [Example 12, 2-Cyclohexyl-1-isopropoxy-1H-imidazo[4,5-c]quinolin-4-amine], 175 to 178 °C. Next, `COn1c(C(C)(C)C)nc2c(N)nc3ccccc3c21` [Example 15, 2-Tert-butyl-1-methoxy-1H-imidazo[4,5-c]quinolin-4-amine]: 195 to 197 °C; `CCOCc1nc2c(N)nc3ccccc3c2n1OC(C)C` [Example 18, 2-(Ethoxymethyl)-1-isopropoxy-1H-imidazo[4,5-c]quinolin-4-amine]: 179 to 181 °C; `Nc1nc2ccccc2c2c1nc(-c1ccccc1)n2OCc1ccccc1` [Example 16, 1-(Benzyloxy)-2-phenyl-1H-imidazo[4,5-c]quinolin-4-amine]: 177 to 179 °C. To `CCCc1nc2c(N)nc3ccccc3c2n1OCC(N)=O` [Example 33, 2-[(4-Amino-2-propyl-1H-imidazo[4,5-c]quinolin-1-yl)oxy]acetamide] belongs 192 to 194 °C. Take `COn1cnc2c(N)nc3ccccc3c21` [Example 22, 1-Methoxy-1H-imidazo[4,5-c]quinolin-4-amine]: the melting point lay within 238 to 240 °C. Next, `Cc1nc2c(N)nc3ccccc3c2n1OC(C)(C)C` [Example 30, 1-tert-Butoxy-2-methyl-1H-imidazo[4,5-c]quinolin-4-amine]: 255 to 257 °C; `CCOn1c(C)nc2c(N)nc3ccccc3c21` [Example 9, 1-Ethoxy-2-methyl-1H-imidazo[4,5-c]quinolin-4-amine]: 219 to 221 °C. Next, `CC(C)On1cnc2c(N)nc3ccccc3c21` [Example 23, 1-Isopropoxy-1H-imidazo[4,5-c]quinolin-4-amine]: 224 to 225 °C; `Cc1nc2c(N)nc3ccccc3c2n1OCC(C)C` [Example 8, 1-Isobutoxy-2-methyl-1H-imidazo[4,5-c]quinolin-4-amine]: 215 to 216 °C; `CCCc1nc2c(N)nc3ccccc3c2n1OC` [Example 1, 1-Methoxy-2-propyl-1H-imidazo[4,5-c]quinolin-4-amine]: 210 to 211 °C. Next, `CC(C)On1c(C(C)C)nc2c(N)nc3ccccc3c21` [Example 26, 1-Isopropoxy-2-isopropyl-1H-imidazo[4,5-c]quinolin-4-amine]: 177 to 179 °C; `CC(C)On1c(CO)nc2c(N)nc3ccccc3c21` [Example 19]: 204 to 206 °C; `CCCc1nc2c(N)nc3ccccc3c2n1O` [Example 24, 4-Amino-2-propyl-1H-imidazo[4,5-c]quinolin-1-ol]: 232 to 235 °C. In turn, `COn1c(C(C)C)nc2c(N)nc3ccccc3c21` [Example 25, 2-Isopropyl-1-methoxy-1H-imidazo[4,5-c]quinolin-4-amine] showed a melting point of 217 to 219 °C. To `Cc1nc2c(N)nc3ccccc3c2n1OCCOc1ccccc1` [Example 31, 2-Methyl-1-(2-phenoxyethoxy)-1H-imidazo[4,5-c]quinolin-4-amine] belongs 237 to 239 °C; to `Cc1nc2c(N)nc3ccccc3c2n1OC(C)C` [Example 6, 1-Isopropoxy-2-methyl-1H-imidazo[4,5-c]quinolin-4-amine], 243 °C. As to `COn1c(-c2ccccc2)nc2c(N)nc3ccccc3c21` [Example 10, 1-Methoxy-2-phenyl-1H-imidazo[4,5-c]quinolin-4-amine], the melting point lay in the range of 241 to 243 °C. To `CCCCc1nc2c(N)nc3ccccc3c2n1OC` [Example 27, 2-Butyl-1-methoxy-1H-imidazo[4,5-c]quinolin-4-amine] belongs 197 to 199 °C; to `CCCc1nc2c(N)nc3ccccc3c2n1OCc1ccccc1` [Example 2, 1-Benzyloxy-2-propyl-1H-imidazo[4,5-c]quinolin-4-amine], 164 to 166 °C; to `CC(C)On1c(C(C)(C)C)nc2c(N)nc3ccccc3c21` [Example 14, 2-Tert-butyl-1-isopropoxy-1H-imidazo[4,5-c]quinolin-4-amine], 187 to 189 °C.

The melting point is the temperature, or range, at which the solid turns liquid.

Source of the values: US7579359B2, “1-alkoxy 1H-imidazo ring systems and methods” (3M Innovative Properties Company, priority 2004, dated 2009).
